Where two headings read alike, the source gives them in different places. Values belong to the molecule of their own block, whether it stands above or below them.
How the values were obtained:
[1] = rat, in vivo, po, 100 mg/kg, 4 h
Protocol: (§2) Each compound of the present invention was dissolved in distilled water for injection and orally administered to rats (Lewis strain line, male, body weight: about 200 g) at a dose of 100mg/kg. From 30 minutes to 4 hours after the administration, a series of blood chronologically collected from rat fundus oculi were centrifuged (3000rpm for 10 minutes at 4°C) to give plasma samples. Each plasma sample (200 µl) was filtered through an ultrafiltration membrane by centrifugation at 1500 x G for 3 minutes using a micropartition UF unit (Centrifree-MPS-3: 30,000 MW cut-off, Amicon Corp., Beverly, MA). […] The reaction was stopped by adding 900 µl of 3% aqueous acetic acid to the reaction mixture. The fluorescence of the resulting solution was read using an excitation wavelength of 325 nm and an emission wavelength of 393 nm. The concentration of each test compound in rat plasma samples was calculated using a standard curve which was prepared based on a variety of doses.

[2] = Assay for Oral Absorption in Rat (plasma level by MMP-3 inhibition bioassay); settings: for AUC: male, Lewis
Protocol: as §2

[3] = molecular target: human fibroblast stromelysin (Homo sapiens, UniProt P08254); test: Assay for inhibition of stromelysin (fluorescein-labeled casein substrate); type: biochemical
Protocol: (§1) Described below are assays for biological activities of the compounds according to the present invention, formulations, dosage forms and dosage levels thereof, and miscellaneous matters. The efficacy of the compounds represented by the formula (I) according to the present invention as inhibitors of human fibroblast collagenase (metalloproteinase involved in the breakdown of tissues) is determined by a procedure based on the method of Y. Murawaki et al., Journal of Hepatology, 18, p328-334 (1993). The efficacy of the compounds (I) of this invention as inhibitors of human fibroblast stromelysin is determined by a procedure based on the method of S. S. Twining, Anal. Biochem., 143, p30 (1984). The assay results obtained are shown hereinbelow, together with biological examples which illustrate embodiments of the assay protocols.
The efficacy of compounds of the present invention to act as inhibitors of human fibroblast stromelysin was determined by the procedure of Twining (Anal. Biochem., 143, p.30, 1984), compared with a reference compound.
Prostromelysin was activated by incubation with 20 µg/ml human plasmin at 37°C for 2 hours, and the reaction was stopped by addition of 2.8 mg/ml aqueous diisopropyl fluorophosphate. The inhibition was assayed using, as a substrate, fluorescein-labeled casein. To a solution of the substrate (1 mg/ml) in a 50 mM Tris-HCl buffer, pH 7.8, containing 10mM aqueous calcium chloride was added the activated stromelysin. The resultant solution was incubated at 37°C for 2 hours. The digestion of the substrate with the enzyme was stopped by addition of 5% trichloroacetic acid. Undigested substrates were precipitated by centrifugation at 3000 x g for 20 minutes. The supernatant was collected, followd by additon of a 0.5M Tris-HCl buffer, pH 8.5. The fluorescence was read using an excitation wavelength of 495 nm and an emission wavelength of 520 nm. The inhibitory potency of the compounds was calculated. […] The resulting assay data for representative examples are shown in Table 2, compared with the reference compound.

[4] = molecular target: TNF-α Convertase (Homo sapiens, UniProt P78536); test: Assay for inhibition of TNF-α production in LPS-stimulated, PMA-differentiated U937 cells
Protocol: Human monocytic leukemia cell line U937 (human histiocytic lymphoma cell line U937) cells were cultured in RPMI 1640 (Nissui Pharmaceutical Co., Ltd., Japan) supplemented with 5% fetal calf serum (FCS; IBL, Japan) in an incubator at 37°C under 5% CO2, then transferred to multiplates at a density of 1 x 10^6 cells/1 ml/well, and incubated overnight in the presence of 10^-7 M phorbol 12-myristate 13-acetate (Wako Pure Chemical Industries, Ltd., Japan) to form differentiated macrophage-like cells. To the resultant cells was added E. coli O127:B8 lipopolysaccaride (LPS, 0.1 µg/ml; Sigma) alone or along with each compound of the present invention, and the treated cells were then incubated for 6 hours in an incubator under 5% CO2 at 37°C. After the incubation, the cultures were collected and centrifuged at 3000 rpm for 10 minutes to give supernatants which were diluted with purified water and then assayed using a TNF-α assay kit, Genzyme (Table 3).

[5] = in vivo; settings: rat, po, 100 mg/kg
Protocol: as §2

[6] = molecular target: T1, human fibroblast collagenase (Homo sapiens, UniProt P03956); test: Assay for inhibition of collagenase (fluorescein-labeled bovine type I collagen substrate); type: biochemical; settings: activated human fibroblast procollagenase, 35°C, 2 hours, pH 7.5; read-out: Inhibition of MMP-1
T1 sequence (P03956 100-469): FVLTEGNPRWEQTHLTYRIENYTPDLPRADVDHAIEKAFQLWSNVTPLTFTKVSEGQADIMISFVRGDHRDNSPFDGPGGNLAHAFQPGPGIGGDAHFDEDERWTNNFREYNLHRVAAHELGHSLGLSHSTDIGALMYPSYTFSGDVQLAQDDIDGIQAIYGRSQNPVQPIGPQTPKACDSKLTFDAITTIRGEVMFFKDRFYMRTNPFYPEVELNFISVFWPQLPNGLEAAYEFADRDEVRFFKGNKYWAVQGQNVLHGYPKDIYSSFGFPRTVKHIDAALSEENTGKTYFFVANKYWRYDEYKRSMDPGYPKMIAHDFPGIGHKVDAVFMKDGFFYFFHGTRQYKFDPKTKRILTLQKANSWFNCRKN
Protocol: as §1
The efficacy of compounds of the present invention to act as inhibitors of human fibroblast collagenase was determined by the procedure of Y. Murawaki et al. (Journal of Hepatology, 18, p.328-334, 1993), compared with a reference compound.
Procollagenase was activated by incubation with 2 mM 4-aminophenylmercuric acetate (APMA) at 35°C for 2 hours. The inhibition was assayed using, as a substrate, fluorescein-labeled bovine type I collagen. To a solution of the substrate (0.5 mg/ml) in a 50 mM Tris-HCl buffer, pH 7.5, containing 0.4M aqueous sodium chloride and 10 mM aqueous […] was added the activated collagenase. The resultant solution was incubated at 35°C for 2 hours. The digestion of the substrate with the enzyme was stopped by addition of 80 mM o-phenanthroline, followed by addition of a porcine elastase solution formed by dissolving 25 µg/ml porcine elastase in the aforementioned Tris-HCl buffer. The mixture was incubated at 37°C for 10 minutes. To the resulting solution was added 70% ethanol, and a 170 mM Tris-HCl buffer, pH 9.5, containing 0.67M aqueous sodium chloride. Undigested substrates were precipitated by centrifugation at 3000 x g for 20 minutes. The supernatant was collected and the fluorescence was read using an excitation wavelength of 495 nm and an emission wavelength of 520 nm. The inhibitory potency of the compounds was calculated. […] The resulting assay data for representative examples are shown in Table 1, compared with the reference compound. […]

[7] = plasmin-activated human fibroblast prostromelysin, 37°C, 2 hours, pH 7.8, read-out: Inhibition of MMP-3

Sequence of human fibroblast stromelysin (P08254 100-477): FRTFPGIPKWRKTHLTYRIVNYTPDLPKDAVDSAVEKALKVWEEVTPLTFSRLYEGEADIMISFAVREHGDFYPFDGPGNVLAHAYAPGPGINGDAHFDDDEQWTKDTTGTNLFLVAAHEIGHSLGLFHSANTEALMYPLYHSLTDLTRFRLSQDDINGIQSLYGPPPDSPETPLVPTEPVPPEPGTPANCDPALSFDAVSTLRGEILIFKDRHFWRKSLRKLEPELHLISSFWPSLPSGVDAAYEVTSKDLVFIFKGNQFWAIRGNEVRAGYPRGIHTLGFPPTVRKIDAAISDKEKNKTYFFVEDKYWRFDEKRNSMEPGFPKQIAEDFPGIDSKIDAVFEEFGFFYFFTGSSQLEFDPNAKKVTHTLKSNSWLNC
Sequence of TNF-α Convertase (P78536 215-824): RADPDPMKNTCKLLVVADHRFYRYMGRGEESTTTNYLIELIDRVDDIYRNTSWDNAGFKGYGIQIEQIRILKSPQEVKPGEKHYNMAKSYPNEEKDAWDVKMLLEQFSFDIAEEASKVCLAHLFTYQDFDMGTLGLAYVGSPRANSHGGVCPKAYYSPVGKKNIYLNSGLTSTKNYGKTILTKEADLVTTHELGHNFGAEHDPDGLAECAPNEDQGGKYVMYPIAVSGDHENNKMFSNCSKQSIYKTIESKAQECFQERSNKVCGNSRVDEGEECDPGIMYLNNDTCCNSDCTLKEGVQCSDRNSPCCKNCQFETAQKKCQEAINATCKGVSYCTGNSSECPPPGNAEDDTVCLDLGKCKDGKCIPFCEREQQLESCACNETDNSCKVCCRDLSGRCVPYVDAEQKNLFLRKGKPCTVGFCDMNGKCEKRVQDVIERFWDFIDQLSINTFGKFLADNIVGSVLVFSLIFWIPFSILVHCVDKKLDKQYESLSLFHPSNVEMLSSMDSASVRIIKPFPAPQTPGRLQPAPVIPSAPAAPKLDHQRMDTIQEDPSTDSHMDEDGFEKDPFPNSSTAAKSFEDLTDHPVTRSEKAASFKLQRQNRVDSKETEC

Molecule: CC(=N)NCCCC[C@H](NC(=O)[C@H](CC(C)C)C(C)C(=O)NO)C(=O)NC(C)CO.CC(=O)O (mixture of isomers) [Compound No. 39, N^a-[4-(Hydroxyamino)-2(R)-isobutyl-3(RS)-methylsuccinyl]-N^e-acetimidoyl-L-lysine N-[2-hydroxy-1(RS)-methylethyl]amide · 1 acetate]
AUC0.5-4 [1]: 14996 ng·h/mL

Molecule: CC(=O)O.CCC(=N)NCCCC[C@H](NC(=O)[C@H](CC(C)C)C(C)C(=O)NO)C(=O)NC (mixture of isomers) [Compound No. 45, N^a-[4-(Hydroxyamino)-2(R)-isobutyl-3(RS)-methylsuccinyl]-N^e-propionimidoyl-L-lysine N-methylamide · 1 acetate]
AUC0.5-4 ([2]; rats (Lewis, male), orally, 100mg/kg, 0.5 to 4 hours after administration): 7067 ng·h/mL

IC50 [3, 7]: 18 nM | AUC ([2]; rat, po, 100 mg/kg): 3130 ng·h/mL | IC50 [4]: 1010 nM
Molecule: CNC(=O)C(Cc1ccc(CNC(C)=N)cc1)NC(=O)C(CC(C)C)C(C)C(=O)NO (single isomer, unassigned) [Compound No. 41, N^a-[4-(Hydroxyamino)-2(R)-isobutyl-3(R or S)-methylsuccinyl]-4'-acetimidoyliminomethyl-L-phenylalanine N-methylamide · 1 acetate]

IC50 [3, 7]: 24 nM | AUC ([2]; rat, po, 100 mg/kg): 6260 ng·h/mL
Molecule: CC(=N)NCc1ccc(CC(NC(=O)C(CC(C)C)C(C)C(=O)NO)C(=O)NN2CCOCC2)cc1 (single isomer, unassigned) [Compound No. 42, N^a-[4-(Hydroxyamino)-2(R)-isobutyl-3(R or S)-methylsuccinyl]-4'-acetimidoyliminomethyl-L-phenylalanine N-(morpholin-4-yl)-amide · 1 acetate]

Molecule: CC(=O)O.CC(=O)O.CNC(=O)[C@H](CCCN)NC(=O)[C@H](CC(C)C)C(Cc1ccc(CN)cc1)C(=O)NO (single isomer, unassigned) [Compound No. 48, N^a-[4-(Hydroxyamino)-2(R)-isobutyl-3(R or S)-(p-aminomethylbentyl)succinyl]-L-ornithine N-methylamide· 2 acetate]
AUC0.5-4 [1]: 20203 ng·h/mL

Molecule: CC(=O)O.CC(=O)O.CNC(=O)[C@H](Cc1ccc(CN)cc1)NC(=O)[C@H](CC(C)C)C(Cc1ccc(CN)cc1)C(=O)NO (single isomer, unassigned) [Compound No. 49, N^a-[4-(Hydroxyamino)-2(R)-isobutyl-3(R or S)-(p-aminomethylbenzyl)succinyl]-4'-aminomethyl-L-phenylalanine N-methylamide · 2 acetate]
AUC0.5-4 [1]: 15292 ng·h/mL

Molecule: CC(=O)O.CNC(=O)[C@H](C)NC(=O)[C@H](CC(C)C)C(Cc1cccc(CN)c1)C(=O)NO (single isomer, unassigned) [Compound No. 53, N^a-[4-(Hydroxyamino)-2(R)-isobutyl-3(R or S)-(m-aminomethylbenzyl)succinyl]-L-alanine N-methylamide · 1 acetate]
AUC0.5-4 [1]: 4816 ng·h/mL

Molecule: CNC(=O)C(CCCCNC(C)=N)NC(=O)C(CC(C)C)C(C)C(=O)NO [Compound No. 22, N^a-[4-(Hydroxyamino)-2(R)-isobutyl-3(RS)-methylsuccinyl]-N^e-acetimidoyl-L-lysine N-methylamide · 1 acetate]
AUC at 4 h ([2]; rat, po, 100 mg/kg): 9130 ng·h/mL | IC50 [4]: 2080 nM

IC50 [3]: 16 nM | AUC at 4 h [5]: 4760 ng·h/mL | IC50 [4]: 1190 nM
Molecule: CNC(=O)C(Cc1ccc(CN)cc1)NC(=O)C(CC(C)C)C(C)C(=O)NO [Compound No. 23, N^a-[4-(Hydroxyamino)-2(R)-isobutyl-3(RS)-methylsuccinyl]-4'-aminomethyl-L-phenylalanine N-methylamide · 1 acetate]

Molecule: CC(=O)O.CNC(=O)[C@H](Cc1ccc(CNC(C)=N)cc1)NC(=O)[C@H](CC(C)C)[C@H](O)C(=O)NO [Compound No. 43, N^a-[4-(Hydroxyamino)-2(R)-isobutyl-3(S)-hydroxysuccinyl]-4'-acetimidoyliminomethyl-L-phenylalanine N-methylamide · 1 acetate]
AUC0.5-4 [1]: 3289 ng·h/mL

IC50 [3]: 17 nM | AUC at 4 h [5]: 1930 ng·h/mL | IC50 [4]: 129 nM
Molecule: CC(=N)NCCCCC(NC(=O)C(CC(C)C)C(CCCc1ccccc1)C(=O)NO)C(=O)NCCN(C)C [Compound No. 44, N^a-[4-(Hydroxyamino)-2(R)-isobutyl-3(RS)-(3-phenylpropyl)-succinyl]-N^e-acetimidoyl-L-lysine N-(2-N',N'-dimethylaminoethyl)amide · 2 acetate]

IC50 [6]: 15 nM | IC50 [3, 7]: 42 nM | AUC ([2]; rat, po, 100 mg/kg): 3380 ng·h/mL | IC50 [4]: 460 nM
Molecule: CNC(=O)C(CCCN)NC(=O)C(CC(C)C)C(CCCc1ccc(NC(=N)N)cc1)C(=O)NO [Compound No. 46, N^a-[4-(Hydroxyamino)-2(R)-isobutyl-3(RS)-[3-(4'-guanidinophenyl)propyl]succinyl]-L-ornithine-N-methylamide · 2 acetate]

AUC0.5-4 [1]: 5662 ng·h/mL
Molecule: N^a-[4-(Hydroxyamino)-2(R)-isobutyl-3(R or S)-[5-(isopropylimino)pentyl]succinyl]-L-alanine N-methylamide [Compound No. 63]
